What was measured:
rabbit platelet [1] = assay: Collagen-induced aggregation in rabbit platelets (AG-II Aggregometer); format: cell-based
Outline: (§1)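 Rabbit citrated PRP, diluted with PPP to 300,000/mm^3 platelets for ADP or 450,000/mm^3 for collagen, was preincubated with compound 1 min at 37° C. before inducer was added. ADP at 7.5×10^-5 M or collagen supernatant in Auren Beronal buffer pH 7.35; transmittance change recorded, percent inhibition derived.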

rabbit platelet [2] = assay: ADP-induced aggregation in rabbit platelets (AG-II Aggregometer); format: cell-based
Outline: as §1

Male mice = assay: Acute toxicity test, oral administration to mice; format: in vivo
Description: The test compounds were administered orally to the mice and LD50 (mg/kg) of the compounds was determined.

[3] = target: T1, cyclic AMP phosphodiesterase (Oryctolagus cuniculus, UniProt G1ST54); assay: Obstructive action against cyclic AMP phosphodiesterase; format: biochemical, rabbit; conditions: 1.0 μmol cyclic AMP, pH 8.0, 30° C., read-out: phosphodiesterase obstruction rate
T1 construct: the supernatant was collected to use it as a crude enzyme solution; from tissue; host or cells: rabbit platelets (from platelet-rich plasma), 100,000 xg supernatant, DEAE-cellulose fraction
T1 sequence (G1ST54 1-1128): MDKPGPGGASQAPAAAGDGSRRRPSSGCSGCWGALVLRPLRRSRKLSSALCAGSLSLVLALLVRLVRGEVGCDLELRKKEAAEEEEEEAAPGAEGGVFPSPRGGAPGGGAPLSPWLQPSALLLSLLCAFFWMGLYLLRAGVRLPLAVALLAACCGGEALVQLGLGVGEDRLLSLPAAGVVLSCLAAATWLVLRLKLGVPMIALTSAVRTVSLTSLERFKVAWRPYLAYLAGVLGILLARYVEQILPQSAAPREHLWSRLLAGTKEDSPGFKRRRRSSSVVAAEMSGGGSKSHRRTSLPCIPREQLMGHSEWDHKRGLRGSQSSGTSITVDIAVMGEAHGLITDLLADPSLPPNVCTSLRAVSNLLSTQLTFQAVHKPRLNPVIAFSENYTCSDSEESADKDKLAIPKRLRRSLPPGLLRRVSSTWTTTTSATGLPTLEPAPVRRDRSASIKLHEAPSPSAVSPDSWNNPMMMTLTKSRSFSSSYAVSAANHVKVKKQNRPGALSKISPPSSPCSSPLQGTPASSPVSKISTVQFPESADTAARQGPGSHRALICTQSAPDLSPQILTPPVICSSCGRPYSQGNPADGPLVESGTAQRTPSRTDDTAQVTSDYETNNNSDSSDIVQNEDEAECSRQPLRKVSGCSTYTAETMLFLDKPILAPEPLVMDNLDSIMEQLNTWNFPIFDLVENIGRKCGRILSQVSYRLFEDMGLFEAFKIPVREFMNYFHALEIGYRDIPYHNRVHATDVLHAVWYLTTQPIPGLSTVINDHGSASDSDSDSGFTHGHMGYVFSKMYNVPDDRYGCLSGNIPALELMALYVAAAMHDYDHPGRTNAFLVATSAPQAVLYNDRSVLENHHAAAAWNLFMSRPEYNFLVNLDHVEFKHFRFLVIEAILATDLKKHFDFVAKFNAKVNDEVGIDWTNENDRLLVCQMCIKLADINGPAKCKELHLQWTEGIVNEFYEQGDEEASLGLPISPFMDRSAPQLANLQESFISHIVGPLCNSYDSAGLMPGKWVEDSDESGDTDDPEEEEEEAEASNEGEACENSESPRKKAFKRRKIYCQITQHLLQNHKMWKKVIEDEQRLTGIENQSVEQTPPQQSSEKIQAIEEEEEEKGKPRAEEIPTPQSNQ
Description: The obstructive action against cyclic AMP phosphodiesterase was measured according to the activity measuring method described in "Biochimica et Biophysica Acta", Vol. 429, pp. 485-497 (1976) and "Biochemical Medicine", Vol. 10, pp. 301-311 (1974).
That is, for determining the obstructive activity against cyclic AMP phosphodiesterase, 10 ml of a solution obtained by adding 1 mmol of MgCl2 into 50 mmol of tris-hydrochloric acid buffer with pH 7.4 was added to the platelets obtained by further centrifuging the abovesaid rabbit PRP at 3,000 r.p.m. for 10 minutes, and the suspended platelets were ground by a Teflon potter type homogenizer. This was followed by two times of freezing and thawing treatment and 300-second fracturing with 200 watt supersonic waves. After additional 60-minute centrifugation with 100,000 xg, the supernatant was collected to use it as a crude enzyme solution.
10 Milliliters of this crude buffer solution was added to a 1.5×20 cm DEAE-cellulose column which has previously been buffered with 50 mmol of tris-acetate buffer (pH 6.0), followed by washing and elution with 30 ml of 50 mmol tris-acetate buffer, and this buffer solution was subjected to linear gradient elution with 0 to 0.5 moles of sodium acetate-tris-acetatebuffer. The flow rate was 0.5 ml/min, and 5 ml of each fraction was batched out. […] This fraction was used as cyclic AMP phosphodiesterase.
0.1 Milliliter of an aqueous solution of each test compound of a specified concentration was mixed with 40 mmol of tris-hydrochloric acid buffer (pH 8.0, containing 50 μg of cow serum albumin and 4 mmol of MgCl2) containing predetermined 1.0 μmol of cyclic AMP (tritium cyclic AMP), and 0.2 ml of this mixed solution was used as substrate solution.
0.2 Milliliter of the above-prepared cyclic AMP phosphodiesterase of a predetermined concentration was added to said substrate solution and the mixture was reaction at 30° C. for 20 minutes, producing tritium 5'-AMP from the tritium cyclic AMP.
The reaction system was then immersed in boiling water for 2 minutes to stop the reaction, and then this reaction solution was cooled in ice water and, for converting the produced tritium 5'-AMP into tritium adenosine, the solution was added with 0.05 ml (1 mg/ml) of snake poison as 5'-nucleotidase and reacted at 30° C. for 10 minutes. The whole amount of this reaction solution was then added to a cation exchange resin (AG 500 W×4, 200-400 meshes, manufactured by Bio-Rad Co., column size: 0.5×1.5 cm), and the produced tritium anodesine alone was allowed to combine, washed with 6 ml of distilled water and eluted with 1.5 ml of 3 N-ammonia water. The whole quantity of the elutant was added with 10 ml of a triton-toluene type scintillator and the produced tritium adenosine was measured by a liquid scintillation counter to determine the phosphodiesterase activity.
In this way, the phosphodiesterase activation value (Vs) of the test compounds of the respective concentrations was determined, and the phosphodiesterase obstruction rate (%) was determined from said activation value (Vs) and control value (Vc) (obtained from water not containing any test compound) from the following formula: [formula]

| Structure (SMILES) | Inhibition effect on collagen induced aggregation in rabbit platelet (rabbit platelet [1]; 10^-4 mole) | Inhibition effect on collagen induced aggregation in rabbit platelet (rabbit platelet [1]; 10^-5 mole) | Inhibition effect on ADP-induced aggregation in rabbit platelet (rabbit platelet [2]; 10^-4 mole) | Inhibition effect on ADP-induced aggregation in rabbit platelet (rabbit platelet [2]; 10^-5 mole) | LD50 (Male mice) | inhibition at 100 µM ([3]; 10^-4 mole) | inhibition at 10 µM ([3]; 10^-5 mole) | inhibition at 1 µM ([3]; 10^-6 mole) | inhibition at 0.1 µM ([3]; 10^-7 mole) |
| --- | --- | --- | --- | --- | --- | --- | --- | --- | --- |
| O=C1CCc2cc(OCCCC(=O)Nc3c(Cl)cccc3Cl)ccc2N1 [compound 21, 6-[3-(o,o-Dichloroanilinocarbonyl)propoxy]-3,4-dihydrocarbonstyril] | 95.1% | 27.6% | 36.8% | 5.3% | > 1000 mg | – | – | – | – |
| CC(C)Cn1c(=O)n(C)c(=O)c2[nH]cnc21 [1-Methyl-3-isobutylxanthine, 1-methyl-3-isobutylxanthine, reference compound] | – | – | – | – | – | 98.5% | 85.7% | 67.4% | 3.2% |

From patent US4298739A, “Novel carbostyril derivatives” (priority 1977, dated 1981)
